According to US9198886B2, “Use of 2,5-dihydroxybenzene for the treatment of ocular diseases” (priority 2006, dated 2015):

Tests used:
Leishmania major = Leishmania major infection of the mouse paw pad; assay type: in vivo, BALB/c female mice
Description: This model is based in the massive inoculation of Leishmania promatigotes in the mouse paw pad. Under these conditions, the parasite induces a progressive inflammation correlated with the multiplication of parasites at the site of inoculation. BALB/c strain female mice that developed severe and uncontrolled injuries were used (Foote S J, Handman E. Brief Funct Genomic Proteomic, 2005). This model has been used in pharmacology to monitor the therapeutic capacity of new leishmanicide compounds and the preventive capacity of potential vaccines against leishmaniasis ((Nelson K G et al. Antimicrob Agents Chemother. 2006).
The animals were inoculated with 5×10^6 of L. major promastigotes (strain Hervás) in 50 μL of PBS into the plantar pad of the right back paw. As negative control of the infection, a group of mice inoculated with 50 μL of PBS was used. The sizes of the lesions were measured every 7 days until the animals were sacrificed (week 9) using a Vernier caliper. The thickness of the right back paw (infected) and the left back paw (uninfected) of all the animals was measured at the base of the fifth toe. The progression of the inflammation is represented as the difference in thickness between the infected and the non-infected paws. […]

[1] = target: fibroblast growth factor-1 (FGF-1) (Homo sapiens, UniProt P05230); assay: FGF-1 induced mitogenesis in quiescent Balb/c 3T3 fibroblasts; assay type: cell-based; conditions: potassium salts, except 2-acetoxy-5-hydroxybenzene sulfonate as calcium salt
Sequence of fibroblast growth factor-1 (FGF-1) (P05230 whole entry, species assumed): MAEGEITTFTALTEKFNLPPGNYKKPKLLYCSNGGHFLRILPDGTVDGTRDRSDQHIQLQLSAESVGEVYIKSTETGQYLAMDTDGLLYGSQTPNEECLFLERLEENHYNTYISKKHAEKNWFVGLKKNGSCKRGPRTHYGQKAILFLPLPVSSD
Procedure: The evaluated compounds were used in the form of potassium salt, except in the first case in which calcium salt was used. The experiments were carried out as described in Fernández-Tornero C et al. J Biol Chem, 2003.

infantile hemangioma = assay: Topical cream in a child with infantile hemangioma; assay type: in vivo, human; conditions: cream 2.5%, topical twice a day, 1, 2 and 3 months, one child
Description: Photographs of a child showing the effects of the topical treatment with a cream comprising 2,5-dihydroxybenzenesulfonic (DHBS) (2.5%) in a baby suffering infantile hemangioma.
The cream comprising 2,5-dihydroxybenzene sulfonic (2.5%) was topically applied twice a day for 3 months on the face of a child suffering from infantile hemangioma.

Nakagawa angioblastoma = assay: Topical cream in a child with Nakagawa angioblastoma (hemangioblastoma); assay type: in vivo, human; conditions: cream 2.5%, topical twice a day, 1 month, one child
Description: Photographs showing the effects of a topical treatment with a cream comprising 2,5-dihydroxybenzenesulfonic (DHBS) in a child suffering from Nakagawa angioblastoma.
The cream comprising 2,5-dihydroxybenzene sulfonic (2.5%) was topically applied twice a day during 1 month on the face of the child suffering from Nakagawa angioblastoma.

pterygium = assay: Topical solution in a patient with unilateral pterygium; assay type: in vivo, human; conditions: 2.5% solution, one drop four times per day, two weeks
Description: FIG. 3. […] The treatment consists of the application of 4 drops of said solution daily, for two weeks.
The solution was applied topically to a patient suffering from unilateral pterygium, as one drop four times per day.

[2] = tested on: angiogenesis induced by Helicobacter pylori in the human gastric mucosa; assay: Gastric mucosa biopsy in a patient chronically infected with Helicobacter pylori; assay type: in vivo; conditions: 500 mg/day oral, one week
Procedure: FIG. 5. Helicobacter pylori • A) Hematoxylin-eosin staining of the gastric mucosa of a sample obtained from a patient infected with Helicobacter pylori before treatment. The arrows and the asterisk indicate the formation of neovessels in the mucosa protruding the gastric lumen through the lost epithelial layer. • B) Hematoxylin-eosin staining of the gastric mucosa of a sample obtained from the same patient infected with Helicobacter pylori after administering 500 mg of 2,5-dihydroxybenzenesulfonate (DHBS) daily for a week.
A biopsy of the gastric mucosa was performed in a patient chronically infected with Helicobacter pylori before the oral treatment with 2,5-dihydroxybenzene sulfonic acid (Dobesilate) (500 mg/day). After a week of treatment, another biopsy was performed in the patient. Both biopsies were evaluated using hematoxylin-eosin staining. […] Microscopically, the arrows and the asterisk indicate the formation of neovessels in the mucosa protruding the gastric lumen through the lost epithelial layer. […] This example illustrates that the use of DHBS is beneficial in the treatment of gastritis and angiogenesis caused by the infection with Helicobacter pylori.

skeletal muscle lesions = assay: Oral treatment of patients with skeletal muscle and tendon lesions (MRI, function); assay type: in vivo, human
Procedure: The capacity of a 2,5-dihydroxybenzene derivative, the 2,5-dihydroxybenzene sulfonic acid (DHBS) to effectively treat skeletal muscle lesions is shown herein. The efficacy is evident, not only in the images of conventional diagnosis that show the recovery of the muscular damage, but also there is a clear functional recovery of the affected limb.
The first patient's left quadriceps was broken by practicing sports. […] At that moment, the patient starts a daily oral treatment with 500 mg of 2,5-dihydroxybenzene sulfonic acid (DHBS) for two weeks. […] An observation that may be applied to the other cases that support this example.
Other patient has an hematoma and muscular breaking of the brachial biceps, as shown in the magnetic resonance image (MRI) of FIG. 12A. The hematoma can be appreciated externally (FIG. 13A) and the lesion, produced by professional practice (dancing) the day before the consultation, limits the elbow flexion (FIG. 13B) and extension (FIG. 13C).

[3] = patient with brachial biceps breaking, 1500 mg/day p.o., 20 days
[4] = patient with broken left quadriceps, 500 mg/day p.o., two weeks

Row | SMILES | size of the lesion (paw thickness difference) (Leishmania major; 200 mg/kg/day i.p. from day 0 to week 9, effect from the third week post-infection) | FGF-1 induced mitogenesis [1] | appearance of the hemangioma lesion (infantile hemangioma) | coloration of the hemangioblastoma lesion (Nakagawa angioblastoma) | pterygium appearance (pterygium) | angiogenic activity in gastric mucosa [2] | epithelial membrane of gastric mucosa [2] | gastric mucosa symptoms of congestion and erythema [2] | MRI tendon lesion (skeletal muscle lesions; patient with Achilles tendon breaking, 1500 mg/day p.o., two months) | MRI size of lesion and hematoma (skeletal muscle lesions; [3]) | elbow function (skeletal muscle lesions; [3]) | MRI of quadriceps lesion and hematoma (skeletal muscle lesions; [4]) | functional recovery of the leg (skeletal muscle lesions; [4]) | time to functional recovery and resolution vs conventional treatments (antiinflammatories) (skeletal muscle lesions; [4]) | MRI muscular lesion (skeletal muscle lesions; patient with semitendinous muscle lesion, 1500 mg/day p.o., 11 days) | increase of paw thickness (infected vs non-infected paw) (Leishmania major; potassium salt 200 mg/kg i.p. daily for 14 days from third week after infection, effect from the eighth week)
1 | CC(=O)Oc1ccc(OC(C)=O)c(S(=O)(=O)[O-])c1.[K+] [DABS, potassium 2,5-diacetoxybenzene sulfonate] | statistically significant reduction in the size of the lesion | Inhibition of FGF-1 induced mitogenesis was observed | – | – | – | – | – | – | – | – | – | – | – | – | – | –
2 | O=S(=O)(O)c1cc(O)ccc1O [DHBS, 2,5-dihydroxybenzene sulfonic acid] | – | Inhibition of the mitogenesis | substantial recovery of the lesion | reduction in the intensity of the reddish coloration | partial reversal of the pterygium | less angiogenic activity | apparently normal | symptoms of congestion and erythema disappear | marked reduction of said lesion | markedly reduces the size of the lesion and of the hematoma | recovers the functionality of the elbow flexion and extension | the hematoma can no longer be observed | able to extend the left leg almost completely | shorter period than the one required in the case of conventional treatments | reduced the muscular lesion | significant reduction in the increase of paw thickness
